Several values for one entry are separate records, joined by “and”; a condition that tells them apart may be missing. Equal values may be shown once.
B1: Sphk1: purified sphingosine kinase1 enzyme (Cayman, 10348) supplemented to cell lysates (protein, UniProt Q9NYA1 1-384, looked up)
Sphingosine kinase 1: MDPAGGPRGVLPRPCRVLVLLNPRGGKGKALQLFRSHVQPLLAEAEISFTLMLTERRNHARELVRSEELGRWDALVVMSGDGLMHEVVNGLMERPDWETAIQKPLCSLPAGSGNALAASLNHYAGYEQVTNEDLLTNCTLLLCRRLLSPMNLLSLHTASGLRLFSVLSLAWGFIADVDLESEKYRRLGEMRFTLGTFLRLAALRTYRGRLAYLPVGRVGSKTPASPVVVQQGPVDAHLVPLEEPVPSHWTVVPDEDFVLVLALLHSHLGSEMFAAPMGRCAAGVMHLFYVRAGVSRAMLLRLFLAMEKGRHMEYECPYLVYVPVVAFRLEPKDGKGVFAVDGELMVSEAVQGQVHPNYFWMVSGCVEPPPSWKPQQMPPPEEPL

How the values were obtained:
[1] = system: neuron; assay: N-AS generation in primary cultured cells (LC-MS/MS); assay type: cell-based, C57BL/6 mice; design: N-AS quantification (Fig 3a): dose or concentration left out as unconfirmed; conditions: replicates
Procedure: Reactions were quenched by adding equal volume of cold methanol. A 100 μl aliquot of the reaction mixture was mixed with 30 μl of distilled water containing 5 ng ml^−1 of furosemide (internal standard) for 1 min and vigorously mixed with […] of ethyl acetate for 20 min. After centrifugation at 16,000×g for 10 min, the mixtures were kept for 2 h for freezing aqueous phase. The upper ethyl acetate layer was transferred to a clean tube and evaporated to dryness under a gentle stream of nitrogen. Then, the dried extract was reconstituted in 100 µl of mobile phase and 10 µl aliquot of the solution was injected into an Agilent 6470 Triple Quad LC–MS/MS system (Agilent, Wilmington, DE) coupled with an Agilent 1260 HPLC system. Separation was performed on a Synergy Polar RP column (4 μm particle size, 2.0 mm × 150 mm, Phenomenex) using a mobile phase that consisted of methanol and water (95:5, v/v) with 0.1% formic acid at a flow rate of 0.2 ml min^−1. Quantification was carried out using multiple reaction monitoring (MRM) at m/z 340.3→263.3 for N-AS and m/z 328.9→284.8 for furosemide (internal standard) in negative ionization mode and collision energy of 20 eV. […] Also, to confirm N-AS generation in neurons, microglia, and astrocytes, these cells were treated with Aβ, and sonicated in neuronal and glial culture medium. […] To evaluate N-AS in microglia and neurons in vivo, the cells were isolated from WT mice, APP/PS1 mice and APP/PS1 mice treated with N-AS at 9 months of age. The cells were sonicated and resuspended in glial and neuronal culture medium, respectively. A 100 μl aliquot of each cell lysate were used for the determination of N-AS using a method previously described.
To confirm the generation and roles of N-AS in neurons, cells from E18 C57BL/6 mice were prepared as previously described. Cortices were dissected and then dissociated followed by incubation in papain (Worthington) at 37 °C for 15 min. […] Aβ 1–42 (10 μM, 24 h, Invitrogen, 03112) was exposed to neurons and the cells were analyzed for the generation and roles of N-AS. […]

[2] = system: microglia; assay: quantification of 15R-LXA4, RvE1, RvD1 in primary cells (LC-MS/MS); assay type: cell-based, C57BL/6 mice; design: unit not given here; conditions: replicates
Procedure: Lipid mediators metabololipidomics were performed according to previously described procedures with minor modifications[4],[30]. To confirm the biosynthesis of lipid mediators by recombinant COX2 treated with N-AS or aspirin, 10 U of human recombinant COX2 (Cayman, 60122) was incubated in the presence of 500 μM aspirin (Sigma-Aldrich, A5376) or N-AS (Sigma-Aldrich, 01912) at 37 °C for 30 min. The enzyme was filtered with a Microcon column (Millipore) to remove unreacted aspirin or N-AS and was then resuspended in 0.1 M Tris-HCl (pH 8.0). Next, 500 μM phenol (Sigma-Aldrich) and 1 μM hematin-porcine (Sigma-Aldrich) were added immediately before incubation with 100 μM AA, EPA or DHA (Cayman) at 37 °C for 2 h, respectively. The mixtures were incubated with 30 U of human 5-LOX (Cayman, 60402) containing 2 mM CaCl2 (Sigma-Aldrich), 1 mM ATP (Amresco) and 5 μM 13-HpODE (Cayman) as activators. Also, to validate the importance of residue S565 for N-AS-acetylation of COX2 and production of SPMs, 10 U of the COX2 S565A mutant was used in the above-described method. In addition, to confirm SPM generation in neurons and microglia, these cells were treated with Aβ and sonicated in neuronal and glial culture medium. […] To evaluate the relationship of N-AS and SPM production in microglia, microglia were isolated from WT, APP/PS1, and APP/PS1 treated with N-AS mice at 9 months of age. The microglia were sonicated and resuspended in microglial culture medium. The supernatants were incubated with 100 μM AA, EPA, and DHA (Cayman) at 37 °C for 2 h. A 50 μl aliquot of the mixture from each cell lysate was added to a 250 μl aliquot of 1 ng ml^−1 of 15S-LXA4-d5 (internal standard, Cayman) methanol solution. After vortexing for 10 min and centrifuging at 15,974×g for 5 min, the supernatant was subjected to the analysis of the lipid mediators using an Agilent 6470 Triple Quad LC-MS/MS system (Agilent) coupled to an Agilent 1290 HPLC system. Chromatographic separation was achieved using a Synergi Polar RP (4 μm, 2.0 mm i.d. × 150 mm, Phenomenex). Analytes were eluted with a mobile phase consisting of water: formic acid (100:0.1 v/v) (phase A) and methanol: formic acid (100:0.1 v/v) (phase B) in gradient elution mode for 23 min a flow rate of 0.2 ml min^−1. The elution gradient was as follows: from 0 to 0.1 min the content of phase A was 37% and the content of phase A was decreased to 10% and maintained for 5.5 min. The content of phase A was increased back to 37% at 6.0 min and maintained for 23 min. Quantification was carried out using MRM in negative ionization mode and collision energy of 10–15 eV. The mass transition from Q1 to Q3 is shown in Supplementary Table 2. In this study, the peak areas for all components were automatically integrated using MassHunter B 06.00. […]

| Molecule | N-AS quantification (Fig 3g) ([1]; Ab + supplement) | 15R-LxA4 (Fig 3i) ([2]; Ab + supplement) | RvD1 (Fig 3i) ([2]; Ab + supplement) | RvE1 (Fig 3i) ([2]; Ab + supplement) | N-AS quantification (Fig 3g) ([1]; Ab, no supplement) | N-AS quantification (Fig 3a) ([1]; Ab) | 15R-LxA4 (Fig 3i) ([2]; Ab, no supplement) | RvD1 (Fig 3i) ([2]; Ab, no supplement) | RvE1 (Fig 3i) ([2]; Ab, no supplement) |
| --- | --- | --- | --- | --- | --- | --- | --- | --- | --- |
| CC(=O)SCCNC(=O)CCNC(=O)[C@H](O)C(C)(C)COP(=O)(O)OP(=O)(O)OC[C@H]1O[C@@H](n2cnc3c(N)ncnc32)[C@H](O)[C@@H]1OP(=O)(O)O [Acetyl-CoA, acetyl-CoA] | 0.4129 and 0.455 and 0.2582 and 0.5811 and 0.497 | 23.4411 and 23.4018 and 22.7231 and 22.8804 and 24.0018 and 22.8017 | 1.293 and 1.217 and 1.321 and 1.255 and 1.269 and 1.288 | 7.62 and 7.421 and 7.916 and 7.52 and 7.668 and 7.718 | – | – | – | – | – |
| CCCCCCCCCCCCC/C=C/[C@@H](O)[C@H](CO)NC(C)=O [N-AS, N-((2S,3R,E)-1,3-Dihydroxyoctadec-4-en-2-yl)acetamide] | – | 7.914 and 7.871 and 7.582 and 7.755 and 8.0725 and 7.669 | 0.9961 and 0.9192 and 1.008 and 0.9576 and 0.9636 and 0.9828 | 3.41 and 3.669 and 3.726 and 3.54 and 3.698 and 3.633 | – | – | – | – | – |
| CCCCCCCCCCCCC/C=C/[C@@H](O)[C@@H](N)CO [Sph, sphingosine] | – | 0.0305 and 0.03209 and 0.03444 and 0.02809 and 0.03291 and 0.03127 | 0.01033 | 0.01434 and 0.01128 and 0.01433 and 0.01281 (2×) and 0.01357 | – | – | – | – | – |
| Ab: Aβ 1–42 (Invitrogen, 03112) used to induce an AD environment in cells | – | – | – | – | 0.5069 and 0.4708 and 0.3905 and 0.3625 and 0.4347 | 0.5349 and 0.246 and 0.4789 and 0.3905 and 0.3625 and 0.4347 | 0.02349 and 0.02377 and 0.02373 and 0.02259 and 0.02438 and 0.02316 | 0.01012 | 0.01237 and 0.02326 and 0.01244 and 0.01782 and 0.01785 and 0.01513 |
| B1 | – | 0.02407 and 0.02353 and 0.02184 and 0.02402 and 0.02413 and 0.02293 | 0.01112 | 0.01218 and 0.0124 and 0.01241 (2×) and 0.01229 and 0.01235 | – | – | – | – | – |

From article PMC7217877, “N-AS-triggered SPMs are direct regulators of microglia in a model of Alzheimer’s disease” (Nature Communications, 2020)
